Results: ChEMBL document CHEMBL1140552, “Preparation, characterization and in vivo conversion of new water-soluble sulfenamide prodrugs of carbamazepine” (Bioorg Med Chem Lett, 2007)

Tests used:
Rattus norvegicus [1] = assay: AUC in Sprague-Dawley rat assessed as carbamazepine level at 4.54 mg/187 g, iv; type: ADME, organism-based, Plasma; details: in vivo
Rattus norvegicus [2] = assay: AUC in Sprague-Dawley rat assessed as carbamazepine level at 5.50 mg/227 g, iv; type: ADME, organism-based, Plasma; details: in vivo
Rattus norvegicus [3] = assay: Cmax in Sprague-Dawley rat assessed as carbamazepine level at 5.50 mg/227 g, iv; type: ADME, organism-based; design: route intravenous; details: in vivo
Rattus norvegicus [4] = assay: Cmax in Sprague-Dawley rat assessed as carbamazepine level at 4.54 mg/187 g, iv; type: ADME, organism-based; design: route intravenous; details: in vivo
[5] = Solubility at pH 2.6; type: physicochemical; details: buffer

Which AUC (Rattus norvegicus [1]) does the source give for NCCSNC(=O)N1c2ccccc2C=Cc2ccccc21.O=C(O)C(F)(F)F here?
Its AUC is 964 µg/min/mL.

And the AUC (Rattus norvegicus [2])?
Its AUC is 545 µg/min/mL.

What about the Cmax (Rattus norvegicus [3]) of the same compound?
The Cmax was 16300 ng/mL.

What about the Cmax (Rattus norvegicus [4]) of the same compound?
Its Cmax is 14100 ng/mL.

What about the solubility [5] of the same compound?
The solubility was 100 mg/mL.
